Results: US9944700B2, “Notch2 binding molecules for treating respiratory diseases” (NOVARTIS AG, priority 2013, dated 2018)

Assays:
[1] = tested on: bronchospheres (human bronchial epithelial cells); experiment: Bronchosphere assay of secreted recombinant human proteins, qPCR of cell type markers and immunostaining; format: cell-based
Description: (§1) Human bronchial epithelial (HBE) cells and culture media were obtained from Lonza. Air-liquid interface cultures using passage 2 (P2) cells were performed as previously described (Danahay, H. et al., American journal of physiology. Lung cellular and molecular physiology 282, L226-236 (2002)). For three-dimensional culturing of HBE cells, P1 cells were trypsinized and resuspended (30,000 cells/ml) in HBE differentiation media containing 5% growth factor-reduced Matrigel (BD Biosciences). 20 μl of suspension was plated in each well of a 384-well plate (Greiner) pre-coated with 10 μl of a 25% solution of Matrigel (BD Biosciences) in HBE differentiation media. Wells were fed or treated at day 2 and day 8 of culture by adding 30 μl of differentiation media containing the appropriate treatment. Three-dimensional cultures were analyzed at the time points indicated.
Immunofluorescence of HBEC bronchospheres was performed as described previously for MCF10A cysts (Debnath, J. et al., Methods 30, 256-268 (2003) with the following modifications. After incubation with fluorescence-conjugated secondary antibodies, DNA was stained with a 1:1 mix of PBS and ProLong gold antifade containing DAPI. Confocal microscopy was performed at room temperature on a microscope (Zeiss LSM510 Meta) using an EC Plan-Neofluar 10×/0.30 dry objective (Zeiss), an EC Plan-Neofluor 20×/0.5 dry objective (Zeiss), a C-Apochromat 40×/1.2 W corr (Zeiss), or a C-Apochromat 63×/1.2 W Corr objective (Zeiss). Images were collected with Zen confocal software (Zeiss). Scale bars were added, and images were processed using Zen (Zeiss) and Photoshop (Adobe). Air-liquid interface (ALI) cultures were processed for immunofluorescence analysis after 14 days of culture at ALI by rinsing the apical surface of each filter with PBS, and then fixing in 4% paraformaldehyde for 4 hours. Filters were washed with IF buffer (130 mM NaCl, 7 mM Na2HPO4, 3.5 mM NaH2PO4, 7.7 mM NaN3, 0.1% bovine serum albumin, 0.2% Triton X-100, 0.05% Tween-20), blocked with IF wash containing 10% goat serum, and stained with primary antibody in IF wash containing 10% goat serum overnight at 4° C. Secondary antibodies were used at a 1:200 dilution in IF buffer containing 10% goat serum. To quantify the total staining area of ALI cultures, 10×13 images were collected with a plan Neofluar 10×0.3 NA Ph1 objective (EC; Carl Zeiss, Inc.) on a microscope (Axiovert 200; Carl Zeiss, Inc.) equipped with a motorized stage and a camera (Orca-ER-1394; Hamamatsu Photonics) controlled by Axiovision software (Carl Zeiss, Inc.) and used to generate a single composite image using the MOSAIX function in Zeiss Axiovision. Quantification of the total staining area was performed with ImageJ. Two to three regions of each ALI culture were punched out with a 4 mm biopsy punch (Miltex, Inc.) and mounted in ProLong gold antifade containing DAPI for imaging by confocal microscopy on a microscope (Axiovert 200; Carl Zeiss, Inc.) equipped with a motorized stage, a Yokogawa CSU-X1 spinning disc head, and an EMCCD camera (Evolve 512, Photometrics), with a Plan-Apochromat 100×/1.4 Oil DIC objective (Zeiss). Cells positive for MUC5AC, MUC5B, or cilia (acetylated α-Tubulin) staining were counted manually. For time-lapse video microscopy, HBECs were imaged at the indicated times during bronchosphere development at 37° C. with a plan Neofluar 10×0.3 NA Ph1 objective (EC; Carl Zeiss, Inc.). Images were taken every 5 min for the indicated time period. Annotations (time stamp and scale bar) were added and videos were assembled using Axiovision software.
RNA was isolated from 3D bronchosphere cultures with Trizol (Invitrogen), using manufacturer's specifications. To isolate RNA from mouse tissue, approximately 20 mg of tissue was placed in a 1.5 ml eppendorf tube with 1 ml of Buffer RLT Plus (Qiagen). A 5 mm stainless steel bead (Qiagen) was added to the tube, and the tissue was sheared using a Tissue Lyser II (Qiagen).

airway basal cells = experiment: Air-liquid interface (ALI) cultures of airway basal cells treated with IL-17A; format: cell-based, human; details: IL-17A from day 7 (day 0 at ALI), analysed day 21; FIGS. 3d, 3e
Description: as §1, with “Wells were fed or treated at day 2 and day 8 of culture by adding 30 μl of differentiation media containing the appropriate treatment.” left out
(§2) Immunofluorescence of HBEC bronchospheres was performed as described previously for MCF10A cysts (Debnath, J. et al., Methods 30, 256-268 (2003) with the following modifications. After incubation with fluorescence-conjugated secondary antibodies, DNA was stained with a 1:1 mix of PBS and ProLong gold antifade containing DAPI. Confocal microscopy was performed at room temperature on a microscope (Zeiss LSM510 Meta) using an EC Plan-Neofluar 10×/0.30 dry objective (Zeiss), an EC Plan-Neofluor 20×/0.5 dry objective (Zeiss), a C-Apochromat 40×/1.2 W corr (Zeiss), or a C-Apochromat 63×/1.2 W Corr objective (Zeiss). […]

[2] = tested on: Human airway basal cells grown in 3D; experiment: 3D bronchosphere cultures treated with Notch receptor-specific blocking antibodies, qPCR of cell type markers; format: cell-based
Description: as §1
RNA was isolated from 3D bronchosphere cultures with Trizol (Invitrogen), using manufacturer's specifications. To isolate RNA from mouse tissue, approximately 20 mg of tissue was placed in a 1.5 ml eppendorf tube with 1 ml of Buffer RLT Plus (Qiagen). A 5 mm stainless steel bead (Qiagen) was added to the tube, and the tissue was sheared using a Tissue Lyser II (Qiagen). RNA from the sheared tissue was purified using the RNeasy Plus Mini Kit (Qiagen), using manufacturer's specifications. TaqMan Reverse Trascription Reagents (Invitrogen) were used to generate cDNA from 1 μg of total RNA. Quantitative PCR was performed on a ViiA7 Real-Time PCR System (Applied Biosystems), using 40 ng of cDNA per reaction with the following Taqman probes (Applied Biosystems): MUC5AC, Hs01365601_m1; MUC5B, Hs00861588_m1; FOXA3, Hs00270130_m1; FOXJ1, Hs00230964_m1; DNAI2, Hs01001544_m1; TP63, Hs00978340_m1; ITGA6, Hs01041011_m1; GAPDH, Hs99999905_m1; Muc5ac, Mm012718_m1; Foxj1, Mm012367279_m1; Trp63, Mm00495788_m1; Gapdh, Mm99999915_g1. […]

[3] = tested on: Human airway basal cells grown in 3D; experiment: IL-13-driven goblet cell metaplasia in 3D bronchospheres, qPCR of cell type markers; format: cell-based
Description: as §1
RNA was isolated from 3D bronchosphere cultures with Trizol (Invitrogen), using manufacturer's specifications. […] Quantitative PCR was performed on a ViiA7 Real-Time PCR System (Applied Biosystems), using 40 ng of cDNA per reaction with the following Taqman probes (Applied Biosystems): MUC5AC, Hs01365601_m1; MUC5B, Hs00861588_m1; FOXA3, Hs00270130_m1; FOXJ1, Hs00230964_m1; DNAI2, Hs01001544_m1; TP63, Hs00978340_m1; ITGA6, Hs01041011_m1; GAPDH, Hs99999905_m1; Muc5ac, Mm012718_m1; Foxj1, Mm012367279_m1; Trp63, Mm00495788_m1; Gapdh, Mm99999915_g1.
In order to understand if neutralizing Notch2 could prevent goblet cell metaplasia, a hallmark of several airway diseases including asthma, cystic fibrosis, and COPD, anti-Notch2 antibodies were tested for their effect on IL-13-driven goblet cell metaplasia in 3D bronchospheres. Human airway basal cells were grown in 3D in the presence of vehicle control or IgG, with or without 1 ng/ml IL-13, or increasing concentrations of α-N2 D3 or 59R5 antibodies together with 1 ng/ml of IL-13, and analyzed by qPCR for the expression levels of the indicated goblet cell markers (FIG. 5a), ciliated cell markers (FIG. 5b), and basal cell markers (FIG. 5c).

[4] = tested on: Human bronchial epithelial (HBE) cells; experiment: IL-13-driven goblet cell metaplasia in ALI cultures; format: cell-based; details: ALI cultures (results not shown)
Description: as §1, with “Wells were fed or treated at day 2 and day 8 of culture by adding 30 μl of differentiation media containing the appropriate treatment.” left out
as §2

[5] = tested on: IL-13 driven goblet cell metaplasia; experiment: IL-13 mouse model, co-administration of anti-Notch2 antibodies; format: in vivo
Description: RNA was isolated from 3D bronchosphere cultures with Trizol (Invitrogen), using manufacturer's specifications. To isolate RNA from mouse tissue, approximately 20 mg of tissue was placed in a 1.5 ml eppendorf tube with 1 ml of Buffer RLT Plus (Qiagen). A 5 mm stainless steel bead (Qiagen) was added to the tube, and the tissue was sheared using a Tissue Lyser II (Qiagen). RNA from the sheared tissue was purified using the RNeasy Plus Mini Kit (Qiagen), using manufacturer's specifications. TaqMan Reverse Trascription Reagents (Invitrogen) were used to generate cDNA from 1 μg of total RNA. Quantitative PCR was performed on a ViiA7 Real-Time PCR System (Applied Biosystems), using 40 ng of cDNA per reaction with the following Taqman probes (Applied Biosystems): MUC5AC, Hs01365601_m1; MUC5B, Hs00861588_m1; FOXA3, Hs00270130_m1; FOXJ1, Hs00230964_m1; DNAI2, Hs01001544_m1; TP63, Hs00978340_m1; ITGA6, Hs01041011_m1; GAPDH, Hs99999905_m1; Muc5ac, Mm012718_m1; Foxj1, Mm012367279_m1; Trp63, Mm00495788_m1; Gapdh, Mm99999915_g1.
Female Balb/c mice (20-25 g) were obtained from Charles River (Morgate, UK). Mice were housed under specific pathogen free conditions and were provided with food and water ad libitum. Experiments were performed in accordance with the UK Animals Scientific Procedures Act 1986.
Mice received 0.5 μg of recombinant mouse IL-13 (Ebiosciences, UK) or phosphate-buffered saline (PBS) intranasally on 3 consecutive (days 1, 2, 3). Mice received either 20 mg/kg neutralizing antibody against Notch2 (α-N2 D3 or α-N2 59R5) or control IgG, or PBS intraperitoneally 2 hours before intranasal challenge with either IL-13 or PBS, on days 1 and 3 only. Mice were euthanized 24 hours after the final IL-13 administration. The left lungs were excised, inflated with 10% neutral buffered formalin (NBF) and preserved in NBF. Lungs were embedded in paraffin wax and lung sections were obtained for each animal. Sections were stained with Periodic Acid-Schiff (PAS) stain for mucus.
PAS positive staining was quantified in lung sections using Definiens Image Analysis software. Two distinct lung sections were analyzed per mouse and the total area of PAS positive staining within the sections was determined. The PAS positive staining was normalized to the area of tissue analyzed and represented as ‘Relative Area PAS Positive Mucus (%)’.
Data are expressed as mean±SEM. Statistical significance was determined using a parametric one way ANOVA and Dunnetts post-test. GraphPad Prism (version 5.04) was used to generate graphs and perform statistical analysis. ***p<0.001 denotes statistically significant difference from relevant isotype control group.

Q: What does the source list for “IL-17A: secreted, recombinant human protein; cytokine secreted by Th17 cells”?
A: change in expression of at least one cell-type marker, initial screen ([1]; 55 proteins tested at 3.3, 10 and 30 ng/mL): concentration-dependent change; basal cell markers ([1]; IL-17A, qPCR, FIG. 3c): No significant changes; levels of goblet cell markers (MUC5AC, MUC5B and FOXA3) ([1]; broader range of IL-17A concentrations, qPCR, FIG. 3a): increased levels; expression of markers of ciliated cells (FOXJ1 and DNAI2) ([1]; broader range of IL-17A concentrations, qPCR, FIG. 3b): inhibiting; expression of both of the ciliated cell markers ([1]; markers FOXJ1, DNAI2): attenuated; expression of at least two of the goblet cell markers ([1]; markers MUC5AC, MUC5B, FOXA3): enhanced; change in expression of at least one of the cell-type markers, on validation ([1]; validation, expanded concentration range): robust change; goblet cell population (MUC5AC and MUC5B markers) (airway basal cells): profound expansion; number of ciliated cells (α-tubulin marker) (airway basal cells): dramatic reduction

Q: How did the “effect on basal cell markers p63 and ITGA6” value ([2]; FIG. 4c) turn out when “59R5: anti-Notch2 antagonist IgG1 antibody, heavy chain SEQ ID NO: 5, light chain SEQ ID NO: 6” was run?
A: Neither antibody showed any significant effect

Q: And the “goblet cell formation: expression of goblet cell markers MUC5AC, MUC5B and FOXA3” value ([2]; compared with IgG control or anti-Notch1 / anti-Notch3 antibodies, FIG. 4a)?
A: decreased

Q: And the “ciliated cell formation: expression of ciliated cells markers FOXJ1 and DNAI2” value ([2]; compared with IgG control or anti-Notch1 / anti-Notch3 antibodies, FIG. 4b)?
A: increasing

Q: What about the “IL-13-driven goblet cell metaplasia (expression of goblet cell markers MUC5AC, MUC5B and FOX3A)” value ([3]; 1 ng/ml IL-13, increasing antibody concentrations, qPCR, FIG. 5a) of the same substance?
A: completely inhibited

Q: And the “ciliated cells function (expression of ciliated cell markers FOXJ1 and DNAI2)” value ([3]; 1 ng/ml IL-13, qPCR, FIG. 5b)?
A: partially restored

Q: And the “effect on basal cells markers p63 and ITGA6” value ([3]; 1 ng/ml IL-13, qPCR, FIG. 5c)?
A: No effect

Q: And the “IL-13-driven goblet cell metaplasia” value [4]?
A: completely inhibited

Q: What about the “effect on basal cell marker Trp63, qPCR of whole lung tissue” value ([5]; 20 mg/kg i.p. days 1 and 3, FIG. 6e) of the same substance?
A: no effect

Q: And the “ciliated cell marker Foxj1, qPCR of whole lung tissue” value ([5]; 20 mg/kg i.p. days 1 and 3, FIG. 6d)?
A: concomitant increase

Q: And the “Muc5ac expression levels, qPCR of whole lung tissue RNA” value ([5]; 20 mg/kg i.p. days 1 and 3, confirms reduced goblet cell metaplasia, FIG. 6c)?
A: verified this observation

Q: And the “IL-13 driven goblet cell metaplasia (PAS staining of lung sections)” value ([5]; Balb/c mice, 20 mg/kg antibody i.p. 2 hours before intranasal IL-13, days 1 and 3, FIGS. 6a, 6b)?
A: completely blocked
